Data reported in ChEMBL document CHEMBL1201862, “PubChem BioAssay data set” (2004).
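Tested at 5 concentrations; 48 h exposure; 96-well plates; endpoints linearly interpolated, else capped at highest concentration. Here, GI50 denotes the concentration required for 50% inhibition of growth.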 Activity calls are given as the source filed them. Rule as the data show it: active = GI50 up to about 1.1 µM and inactive = higher.

Experiments:
Assay in all cases: inhibition of tumour cell growth, NCI panel, 48 h
[1] = test system: ACHN
[2] = test system: HOP-92
[3] = test system: NCI-H522
[4] = test system: SW-620
[5] = test system: SK-MEL-2
[6] = test system: T47D
[7] = test system: HCC 2998
[8] = test system: NCI-H23
[9] = test system: SF-295
[10] = test system: UACC-257
[11] = test system: K562
[12] = test system: SR
[13] = test system: UO-31
[14] = test system: SF-268
[15] = test system: SK-MEL-5
[16] = test system: A549
[17] = test system: RPMI-8226
[18] = test system: Hs-578T
[19] = test system: MOLT-4
[20] = test system: SK-MEL-28
[21] = test system: EKVX
[22] = test system: PC-3
[23] = test system: MCF7
[24] = test system: Malme-3M
[25] = test system: SNB-75
[26] = test system: TK-10
[27] = test system: HCT-116
[28] = test system: NCI/ADR-RES
[29] = test system: MDA-N
[30] = test system: HT-29
[31] = test system: MDA-MB-435
[32] = test system: SK-OV-3
[33] = test system: OVCAR-4
[34] = test system: NCI-H226
[35] = test system: U-251
[36] = test system: RXF 393
[37] = test system: UACC-62
[38] = test system: IGROV-1
[39] = test system: HCT-15
[40] = test system: COLO 205
[41] = test system: BT-549
[42] = test system: CAKI-1
[43] = test system: KM12
[44] = test system: SF-539
[45] = test system: A498
[46] = test system: M14
[47] = test system: 786-0
[48] = test system: SN12C
[49] = test system: OVCAR-8
[50] = test system: DU-145
[51] = test system: HL-60
[52] = test system: OVCAR-3
[53] = test system: NCI-H460
[54] = test system: HOP-62
[55] = test system: LOX IMVI
[56] = test system: MDA-MB-231
[57] = test system: CCRF-CEM
[58] = test system: OVCAR-5
[59] = test system: SNB-19

COC(=O)c1ccc(CCC2=CC(=O)C(Br)=CC2=O)cc1
GI50 [1]: 12.6 µM (inactive)
GI50 [2]: 5.14 µM (inactive)
GI50 [3]: 2.68 µM (inactive)
GI50 [4]: 13.6 µM (inactive)
GI50 [5]: 17.1 µM (inactive)
GI50 [6]: 21.5 µM (inactive)
GI50 [7]: 15.7 µM (inactive)
GI50 [8]: 15.1 µM (inactive)
GI50 [9]: 19.5 µM (inactive)
GI50 [10]: 15.6 µM (inactive)
GI50 [11]: 2.21 µM (inactive)
GI50 [12]: 2.97 µM (inactive)
GI50 [13]: 15.8 µM (inactive)
GI50 [14]: 19.8 µM (inactive)
GI50 [15]: 12.1 µM (inactive)
GI50 [16]: 19.4 µM (inactive)
GI50 [17]: 10.2 µM (inactive)
GI50 [18]: 20.4 µM (inactive)
GI50 [19]: 2.47 µM (inactive)
GI50 [20]: 16.7 µM (inactive)
GI50 [21]: 19 µM (inactive)
GI50 [22]: 16.9 µM (inactive)
GI50 [23]: 16.5 µM (inactive)
GI50 [24]: 16.9 µM (inactive)
GI50 [25]: 14 µM (inactive)
GI50 [26]: 17.3 µM (inactive)
GI50 [27]: 16 µM (inactive)
GI50 [28]: 18.7 µM (inactive)
GI50 [29]: 16 µM (inactive)
GI50 [30]: 16.7 µM (inactive)
GI50 [31]: 16.1 µM (inactive)
GI50 [32]: 17.8 µM (inactive)
GI50 [33]: 17.2 µM (inactive)
GI50 [34]: 14.7 µM (inactive)
GI50 [35]: 16.7 µM (inactive)
GI50 [36]: 18.3 µM (inactive)
GI50 [37]: 17.8 µM (inactive)
GI50 [38]: 15 µM (inactive)
GI50 [39]: 14.5 µM
GI50 [40]: 6.78 µM (inactive)
GI50 [41]: 11.6 µM (inactive)
GI50 [42]: 13.6 µM (inactive)
GI50 [43]: 15.2 µM (inactive)
GI50 [44]: 17.8 µM (inactive)
GI50 [45]: 20.2 µM (inactive)
GI50 [46]: 14.7 µM (inactive)
GI50 [47]: 19.8 µM (inactive)
GI50 [48]: 17.5 µM (inactive)
GI50 [49]: 16.3 µM (inactive)
GI50 [50]: 18.1 µM (inactive)
GI50 [51]: 2 µM (inactive)
GI50 [52]: 15.3 µM (inactive)
GI50 [53]: 18.2 µM (inactive)
GI50 [54]: 17.8 µM (inactive)
GI50 [55]: 17.5 µM (inactive)
GI50 [56]: 18.6 µM (inactive)
GI50 [57]: 0.615 µM (active)
GI50 [58]: 18.8 µM (inactive)
GI50 [59]: 15.6 µM (inactive)

COc1ccc(CC2c3cc(Oc4cc(CC5c6cc(OC)c(OC)cc6CCN5C)ccc4O)c(OC)cc3CCN2C)cc1 (stereo not drawn)
GI50 [1]: 7.01 µM (inactive)
GI50 [2]: 7.41 µM (inactive)
GI50 [3]: 6.81 µM (inactive)
GI50 [4]: 1.66 µM (inactive)
GI50 [5]: 8.65 µM (inactive)
GI50 [6]: 6.43 µM (inactive)
GI50 [7]: 1.14 µM (inactive)
GI50 [8]: 8.18 µM (inactive)
GI50 [9]: 8.2 µM (inactive)
GI50 [10]: 8.04 µM (inactive)
GI50 [11]: 1.36 µM (inactive)
GI50 [12]: 1.43 µM (inactive)
GI50 [13]: 5.25 µM (inactive)
GI50 [14]: 9.14 µM (inactive)
GI50 [15]: 7.6 µM (inactive)
GI50 [16]: 6.73 µM (inactive)
GI50 [17]: 2.44 µM (inactive)
GI50 [18]: 9.62 µM (inactive)
GI50 [19]: 5.52 µM (inactive)
GI50 [20]: 7.8 µM (inactive)
GI50 [21]: 8.65 µM (inactive)
GI50 [22]: 5.47 µM (inactive)
GI50 [23]: 5.81 µM (inactive)
GI50 [24]: 10.1 µM (inactive)
GI50 [25]: 8.45 µM (inactive)
GI50 [26]: 3.87 µM (inactive)
GI50 [27]: 2.22 µM (inactive)
GI50 [28]: 7.48 µM (inactive)
GI50 [29]: 7.1 µM (inactive)
GI50 [30]: 2.06 µM (inactive)
GI50 [31]: 4.14 µM (inactive)
GI50 [32]: 9.29 µM (inactive)
GI50 [33]: 2.42 µM (inactive)
GI50 [34]: 10.2 µM (inactive)
GI50 [35]: 5.74 µM (inactive)
GI50 [36]: 5.92 µM (inactive)
GI50 [37]: 8.65 µM (inactive)
GI50 [38]: 8.59 µM (inactive)
GI50 [39]: 2.17 µM
GI50 [40]: 7.06 µM (inactive)
GI50 [41]: 6.64 µM (inactive)
GI50 [42]: 1.48 µM (inactive)
GI50 [43]: 1.77 µM (inactive)
GI50 [44]: 8.63 µM (inactive)
GI50 [45]: 7.96 µM (inactive)
GI50 [46]: 5.64 µM (inactive)
GI50 [47]: 3.02 µM (inactive)
GI50 [48]: 8 µM (inactive)
GI50 [49]: 5.96 µM (inactive)
GI50 [50]: 1.3 µM (inactive)
GI50 [51]: 7.78 µM (inactive)
GI50 [52]: 8.05 µM (inactive)
GI50 [53]: 6.98 µM (inactive)
GI50 [54]: 7.93 µM (inactive)
GI50 [55]: 2.55 µM (inactive)
GI50 [56]: 7.91 µM (inactive)
GI50 [57]: 0.519 µM (active)
GI50 [58]: 9.44 µM (inactive)
GI50 [59]: 6.1 µM (inactive)
